# Key:
# Type in all cases: cell-based
# Pseudomonas aeruginosa = assay: Antibiofilm activity (crystal violet, A490); details: biofilm, read-out: MBEC
# Procedure: (§1) The effect of the chalcones on the biofilm formation was evaluated after the determination of the MICs. Briefly, the plates were emptied, washed to remove the nonadherent cells, fixed with methanol, and stained with crystal violet. The antibiofilm activity was determined after adding 33% acetic acid solution by measuring the absorbance at 490 nm, and the results are listed in Table 6.
# (§2) The azulene-chalcone derivatives were tested for their ability to affect biofilm formation since 80% of the world’s microbial biomass is found in the biofilm state. The most efficient compound was again chalcone 6 with MBEC of 0.156–0.625 mg/mL (Table 6).
# Escherichia coli = assay: Antibiofilm activity (crystal violet, A490); details: biofilm, read-out: MBEC
# Procedure: as §1, §2
# Candida parapsilosis = assay: Antibiofilm activity (crystal violet, A490); details: Lodderomyces parapsilosis, biofilm, read-out: MBEC
# Procedure: as §1, §2
# Staphylococcus aureus = assay: Antibiofilm activity (crystal violet, A490); details: biofilm, read-out: MBEC
# Procedure: as §1, §2
# [1] = system: Pseudomonas aeruginosa ATCC 27853; assay: MIC, binary serial dilution in 96-well plates; details: ATCC27853; Pseudomonas aeruginosa ATCC 27853, 24 h at 37 °C
# Procedure: (§3) The antimicrobial activity of all compounds was assessed on Gram-positive bacteria (Staphylococcus aureus ATCC 25923), Gram-negative bacteria (Escherichia coli ATCC 25922, Pseudomonas aeruginosa ATCC 27853), and fungi (Candida parapsilosis ATCC 22019) using quantitative binary serial dilution method in 96-well plates. The negative control was represented by wells with culture medium, while positive control was the microbial strain in broth. Briefly, binary serial dilutions of the compounds performed in 100 μL of broth were seeded with microbial inoculum of 10^6 colony forming units (CFU)/mL and incubated for 24 h at 37 °C. […] Due to the fact that the obtained compounds were colored, after the incubation of the 96-well plates, from each well, 10 µL were seeded on agar plates (Plate Count Agar) to determine the inhibitory concentration. The same value of the inhibitory concentration was obtained in repeated experiments.
# (§4) The antibacterial effect of the azulene moiety introduced in the chalcone structure was investigated against Gram-positive (Staphylococcus aureus ATCC 25923) and Gram-negative (Escherichia coli ATCC 25922, Pseudomonas aeruginosa ATCC 27853) bacteria, while the antifungal effect was tested against Candida parapsilosis ATCC 22019. To our knowledge, the antibacterial activity of azulene-containing chalcone compounds has not been reported previously; moreover, this is the first investigation of the biological properties of azulene-containing chalcones in general. The results expressed in terms of minimum inhibitory concentration (MIC) were determined by in vitro screening of the antimicrobial properties using the broth microdilution method and are summarized in Table 5.
# [2] = system: Escherichia coli ATCC 25922; assay: MIC, binary serial dilution in 96-well plates; details: ATCC25922; Escherichia coli ATCC 25922, 24 h at 37 °C
# Procedure: as §3, §4
# [3] = system: Staphylococcus aureus ATCC 25923; assay: MIC, binary serial dilution in 96-well plates; details: for MIC: ATCC25923, Staphylococcus aureus ATCC 25923, 24 h at 37 °C; for Aexp: Aexp = 0.1 + log (k/MIC), k = 1.250, compounds synthesized herein
# Procedure: as §3, §4
# [4] = Cell viability assay (CellTiter Glo); details: human; HEp-2 cells, 48 h, CellTiter Glo; read-out: IC50 (50% cytotoxic concentration)
# Procedure: (§5) To assess the toxicity of the azulene-containing chalcones, the adherent cell line HEp-2 (American Cell Type Collection [ATCC] CCL-23^TM) was used.
# (§6) In order to estimate the cytotoxicity of the compounds, HEp-2 cells (American Cell Type Collection (ATCC) CCL-23) were exposed to the azulene-containing chalcones at concentrations of 200, 100, 50, and 25 μg/mL and evaluated using CellTiter Glo kit (Promega, Madison, WI, USA) assay. The results presented in Figure 3 are expressed as viability percentages versus control.
# [5] = system: Candida parapsilosis ATCC 22019; assay: MIC (antifungal), binary serial dilution in 96-well plates; details: Lodderomyces parapsilosis, ATCC22019; Candida parapsilosis ATCC 22019, 24 h at 37 °C
# Procedure: as §3, §4
# We further tested the azulene-containing chalcone compounds for antifungal activity against Candida parapsilosis ATCC 22019.
# HEp-2 cells [6] = assay: Cell viability assay (CellTiter Glo); details: 25-200 μg/mL
# Procedure: as §5, §6
# biofilm formation = assay: Antibiofilm activity, summary over the tested strains; details: range over the tested strains (Table 6)
# Procedure: as §1, §2
# caspase 8 = assay: Gene expression quantification (qPCR); details: HEp-2, 100 µg/mL, 24 h
# Procedure: (§7) The mechanism of azulene-containing chalcone toxicity was assessed by gene expression evaluation. HEp-2 cells were seeded in 6-well plates at a concentration of 3 × 10^5 cells/wells in DMEM:F12 supplemented with 10% FBS. The cells were treated with azulene-containing chalcone at a concentration of 100 µg/mL. After 24 h, the cells were harvested and centrifuged, and the pellet was subjected to total RNA extraction using Trizol reagent (Sigma, St. Louis, MO, USA). The cDNA was produced using 2 µg total RNA and High Capacity Reverse Transcription Kit (Thermo Fisher Scientific, Chelmsford, MA, USA). Fifty nanograms of cDNA was subjected to PCR reaction using Maxima SYBR Green/ROX qPCR Master Mix (Thermo Fisher Scientific, Chelmsford, MA, USA) and Origene primer pairs: caspase 3 (CAT#: HP207674) caspase 7 (CAT#: HP233752), caspase 8 (CAT#: HP234494), caspase 9 (CAT#: HP205155), caspase 10 (CAT#: HP228052). For NOX-4 and NOS2, the following primers were used: NOX 4 forward 5′-[…]-3 and reverse 5′-[…]-3′ and NOS2 forward 5′-[…]-3′ and reverse 5′-[…]-3′. Amplification was completed using StepOne Real-Time PCR System (Thermo Fisher Scientific, Chelmsford, MA, USA). The relative changes in the levels of mRNA expression were quantified by using the 2^−ΔΔCT method.
# (§8) Production of procaspase 8 mRNA was inhibited by 7, 9, and 10, with an important role in extrinsic apoptosis induction remaining for caspase 10. Cellular stress induces intrinsic apoptosis by caspase 9 activation that stimulates the caspase cascade, culminating in activation of executioner caspases 3 and 7 [42]. The mRNA expression of caspase 9 was activated following the treatment with 100 µg/mL of compounds 1–8 but inhibited by 9 and 10.
# NOX4 = assay: Gene expression quantification (qPCR); details: HEp-2, 100 µg/mL, 24 h
# Procedure: as §7
# (§9) One of our approaches consisted of the analysis of NOS2 and NOX4 gene expression (Figure 6). […]
# HEp-2 cells [7] = assay: Cell cycle analysis (propidium iodide, flow cytometry)
# Procedure: For cell cycle analysis, a suspension of 7.5 × 10^4 HEp-2 cells was seeded for 24 h in a 1 cm^2 well in DMEM:F12 containing 10% fetal bovine serum. After recovery, the cells were treated with 50 µg/mL or 100 µg/mL azulene-containing chalcone, and 24 h later, the cells were harvested, fixed in cold ethanol overnight, and stained with RNase A/propidium iodide at a concentration of 1 mg/mL to 100 µg/mL. The events were recorded using the Beckman Coulter flow cytometer and analyzed using FlowJo 7.2.5 software.
# The cytotoxicity data were also confirmed by cell cycle analysis. Among the tested compounds, chalcone 10 induced an increase in the G2/M phase starting from a concentration of 50 µg/mL (Supplementary Material Figure S2), the effect increasing slightly with the concentration of the tested compound. The increase in the G2/M phase was also observed in the case of compound 9, but at a higher concentration (100 µg/mL), but this effect was lower (Figure 4).
# caspase 9 = assay: Gene expression quantification (qPCR); details: HEp-2, 100 µg/mL, 24 h
# Procedure: as §7, §8
# NOS2 = assay: Gene expression quantification (qPCR); details: HEp-2, 100 µg/mL, 24 h
# Procedure: as §7, §9
# caspase 3 = assay: Gene expression quantification (qPCR); details: HEp-2, 100 µg/mL, 24 h
# Procedure: as §7
# (§10) We observed that the expression of both executioner caspases, caspase 3 (Casp 3), and caspase 7 (Casp 7), was activated by azulene (Figure 5, right). The production of procaspase 3 and 7 mRNA in the case of compounds 9 and 10 was quite reduced, probably correlated with the decreased number of cells.
# caspase 7 = assay: Gene expression quantification (qPCR); details: HEp-2, 100 µg/mL, 24 h
# Procedure: as §7, §10
Compound,minimal effective concentration (Pseudomonas aeruginosa),minimal effective concentration (Escherichia coli),minimal effective concentration (Candida parapsilosis),minimal effective concentration (Staphylococcus aureus),MIC [1],MIC [2],MIC [3],Aexp [3],IC50 at 48 h [4],MIC [5],cytotoxicity (HEp-2 cells [6]),MBEC (biofilm formation),procaspase 8 mRNA production (caspase 8),NOX4 activation (expression) (NOX4),"effect on G2/M phase (HEp-2 cells [7]; HEp-2, 100 µg/mL)",mRNA expression of caspase 9 (caspase 9),NOS2 expression (NOS2),procaspase 3 mRNA expression (caspase 3),procaspase 7 mRNA expression (caspase 7),"effect on G2/M phase (HEp-2 cells [7]; HEp-2, starting from 50 µg/mL)"
"O=C(/C=C/c1ccc2cccccc1-2)c1cccc2ccccc12 [Compound 4, (E)-3-(Azulen-1-yl)-1-(naphthalen-1-yl)prop-2-en-1-one]",625 µg/mL,625 µg/mL,625 µg/mL,1250 µg/mL,625 µg/mL,625 µg/mL,1250 µg/mL,0.100,61.8 µg/mL,312 µg/mL,–,–,–,–,–,–,–,–,–,–
"O=C(/C=C/c1ccc2cccccc1-2)c1ccc2ccccc2c1 [Compound 5, (E)-3-(Azulen-1-yl)-1-(naphthalen-2-yl)prop-2-en-1-one]",1250 µg/mL,625 µg/mL,625 µg/mL,2500 µg/mL,625 µg/mL,625 µg/mL,1250 µg/mL,0.100,102 µg/mL,312 µg/mL,–,–,–,–,–,–,–,–,–,–
"O=C(/C=C/c1ccc2cccccc1-2)c1ccc2cccccc1-2 [Compound 6, (E)-1,3-Di(azulen-1-yl)prop-2-en-1-one]",625 µg/mL,625 µg/mL,156 µg/mL,625 µg/mL,625 µg/mL,625 µg/mL,625 µg/mL,0.401,78.6 µg/mL,156 µg/mL,low toxicity,0.156 to 0.625 mg/mL,–,–,–,–,–,–,–,–
"O=C(/C=C/c1cc(Cl)c2cccccc1-2)c1ccc2cccccc1-2 [Compound 7, (E)-1-(Azulen-1-yl)-3-(3-chloroazulen-1-yl)prop-2-en-1-one]",625 µg/mL,1250 µg/mL,312 µg/mL,625 µg/mL,625 µg/mL,625 µg/mL,625 µg/mL,0.401,42.9 µg/mL,312 µg/mL,–,–,inhibited,minimal,–,–,–,–,–,–
"O=C(/C=C/c1cc(Br)c2cccccc1-2)c1ccc2cccccc1-2 [Compound 8, (E)-1-(Azulen-1-yl)-3-(3-bromoazulen-1-yl)prop-2-en-1-one]",1250 µg/mL,625 µg/mL,312 µg/mL,1250 µg/mL,625 µg/mL,625 µg/mL,1250 µg/mL,0.100,93.5 µg/mL,312 µg/mL,–,–,–,–,–,–,–,–,–,–
"Cc1cc(/C=C/C(=O)c2ccc3cccccc2-3)c2cccccc1-2 [Compound 9, (E)-1-(Azulen-1-yl)-3-(3-methylazulen-1-yl)prop-2-en-1-one]",625 µg/mL,625 µg/mL,312 µg/mL,625 µg/mL,625 µg/mL,625 µg/mL,1250 µg/mL,0.100,52.5 µg/mL,312 µg/mL,–,–,inhibited,–,increase,inhibited,reduced,quite reduced,quite reduced,–
"Cc1cc(C(=O)/C=C/c2ccc3cccccc2-3)c2cccccc1-2 [Compound 10, (E)-3-(Azulen-1-yl)-1-(3-methylazulen-1-yl)prop-2-en-1-one]",625 µg/mL,625 µg/mL,312 µg/mL,1250 µg/mL,625 µg/mL,625 µg/mL,1250 µg/mL,0.100,4.95 µg/mL,312 µg/mL,most toxic,–,inhibited,–,–,inhibited,–,quite reduced,quite reduced,increase
